Where “and” joins values, the source holds several entries; their conditions need not be identical. Equal values may be shown once.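 1) Cells in 96-well plates. 2) Compound, 48 h, 5 concentrations. 3) Linear interpolation between surrounding doses. 4) Unreached endpoint = highest concentration. Abbreviation: GI50, concentration required for 50% inhibition of growth. Definition used: TGI = concentration required for complete inhibition of growth.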
Tests used:
Test in all cases: NCI anticancer screen, dose series, 48 h
CAKI-1 renal = tested on: CAKI-1 renal
MALME-3M melanoma = tested on: MALME-3M melanoma
RXF 393 renal = tested on: RXF 393 renal
HOP-92 NSCLC = tested on: HOP-92 NSCLC
HOP-62 NSCLC = tested on: HOP-62 NSCLC
MOLT-4 leukemia = tested on: MOLT-4 leukemia
M14 melanoma = tested on: M14 melanoma
K-562 leukemia = tested on: K-562 leukemia
NCI-H460 lung = tested on: NCI-H460 lung
T-47D breast = tested on: T-47D breast

SMILES | GI50 (CAKI-1 renal) | TGI (CAKI-1 renal) | GI50 (MALME-3M melanoma) | TGI (MALME-3M melanoma) | GI50 (RXF 393 renal) | TGI (RXF 393 renal) | GI50 (HOP-92 NSCLC) | TGI (HOP-92 NSCLC) | GI50 (HOP-62 NSCLC) | TGI (HOP-62 NSCLC) | GI50 (MOLT-4 leukemia) | TGI (MOLT-4 leukemia) | GI50 (M14 melanoma) | TGI (M14 melanoma) | GI50 (K-562 leukemia) | TGI (K-562 leukemia) | GI50 (NCI-H460 lung) | TGI (NCI-H460 lung) | GI50 (T-47D breast) | TGI (T-47D breast)
COc1ccccc1-n1cnc(N)c1C(=O)c1cc(OC)c(OC)c(OC)c1 | 3.12 µM | > 100 µM | 4.33 µM | > 100 µM | 2.19 µM | 64.5 µM | 43.8 µM | > 100 µM | 37.4 µM | > 100 µM | 4.82 µM | > 100 µM | 3.5 µM | > 100 µM | 2.12 µM | > 100 µM | 3.47 µM | > 100 µM |  | 
CCOC(=O)c1oc2c(OC)ccc3c2c1CCC3 |  |  |  | > 100 µM |  | > 100 µM |  | > 100 µM |  | > 100 µM |  | > 100 µM |  | > 100 µM |  | > 100 µM |  | > 100 µM |  | 
CC1CC(C[N+](=O)[O-])CC2(C1)OCCO2 (stereo unspecified) |  | > 100 µM |  | > 100 µM |  | > 100 µM |  |  |  | > 100 µM |  | > 100 µM |  | > 100 µM |  | > 100 µM |  | > 100 µM |  | 
Cc1cc2c(cc1Cl)SC(N(c1ccccc1Cl)S(=O)(=O)c1ccc(Br)s1)=NS2(=O)=O | 19.4 µM | 48.4 µM | 13.8 µM | 39.4 µM |  |  | 6.62 µM | 21.8 µM | 37.5 µM | > 100 µM | 15.3 µM | 42.5 µM | 18.5 µM | 47.3 µM | 18.7 µM | 54.6 µM | 13.9 µM | 36.3 µM | 4.95 µM | 23 µM
C[C@@H](O)[C@@H](C)Oc1nc(Nc2ccc(S(=N)(=O)C3CC3)cc2)ncc1C(F)(F)F (stereo partly specified) | 0.039 µM | > 100 µM | 0.0455 µM | 0.167 µM |  |  | 0.026 µM | 0.0753 µM | 0.0283 µM | 16.4 µM | 0.0255 µM | 0.0816 µM | 0.0349 µM | 0.316 µM | 0.0425 µM | > 100 µM | 0.0303 µM | 11.5 µM | 0.0386 µM | 6.62 µM
CCCCC(C(=O)C(=O)Nc1ccc(C)cc1C)C(=O)C(C)C (stereo unspecified) |  | > 100 µM |  | > 100 µM |  | > 100 µM |  | > 100 µM |  | > 100 µM |  | > 100 µM |  | > 100 µM |  | > 100 µM |  | > 100 µM |  | 
CC(=O)OCCOCn1c2ccccc2c2c3c(c4c5ccccc5n(COCCOC(C)=O)c4c21)C(=O)N(Cc1ccccc1)C3=O |  |  |  | > 100 µM |  | > 100 µM |  | > 100 µM |  | > 100 µM |  | > 100 µM |  | > 100 µM |  | > 100 µM |  | > 100 µM |  | 
OCC#CCOCC#Cc1ccccc1C#CCOCC#CCO | 82.8 µM | > 100 µM |  |  | 28.8 µM | 82.4 µM | 21.8 µM | > 100 µM |  |  | 44.8 µM | > 100 µM | 20.2 µM | 49.9 µM | 27 µM | 90 µM | 48.6 µM | > 100 µM |  | 
COc1cc(/C=C/C(=O)c2cccc3ccccc23)cc(OC)c1OC |  | 23.2 µM |  | 24.9 µM |  | 7.93 µM |  |  |  | 18.8 µM |  | 34.4 µM |  | 19.1 µM |  | 14.1 µM |  | 14.2 µM |  | 
O=C1C=CC2(CCCCCCC2=O)CC1 (stereo unspecified) |  | > 100 µM |  | > 100 µM |  | > 100 µM |  | > 100 µM |  | > 100 µM |  | > 100 µM |  | > 100 µM |  |  |  | > 100 µM |  | 
CC(=O)OC1C[C@H]2C(OC(=O)c3ccccc3)C3C4(OC(C)=O)COC4C[C@H](OC(C)=O)[C@@]3(C)C(OC(C)=O)[C@H](OC(C)=O)C(=C1C)C2(C)C (stereo partly specified) |  | 31.4 µM |  | > 100 µM |  | 49.3 µM |  |  |  | > 100 µM |  | > 100 µM |  | > 100 µM |  | > 100 µM |  | > 100 µM |  | 
O/N=C1/CCCC/C1=C/C=C/c1ccccc1 |  | > 100 µM |  | 41 µM |  | 41.5 µM |  | 36.7 µM |  |  |  | 67.1 µM |  | 40.9 µM |  | 96.1 µM |  | 53.8 µM |  | 
O=C(NCCCCCCCCCCCCNC(=O)c1cnc2ccccc2n1)c1cnc2ccccc2n1 |  | > 100 µM |  | > 100 µM |  | 88.6 µM |  |  |  | > 100 µM |  | > 100 µM |  | > 100 µM |  | > 100 µM |  | > 100 µM |  | 
CC(=O)Nc1ccccc1-c1nc2ccccc2nc1-c1ccccc1 |  | > 100 µM |  |  |  | > 100 µM |  | > 100 µM |  | > 100 µM |  | > 100 µM |  | > 100 µM |  | > 100 µM |  | > 100 µM |  | 
CC/C=C\C[C@H]1C/C=C2/C(=O)C=C[C@H]2C/C=C\CCCC(=O)O1 | 2.29 µM | 8.23 µM | 7.81 µM | 17.4 µM | 1.91 µM | 8.01 µM | 2.53 µM | 10.1 µM | 2.09 µM | 7.72 µM | 1.84 µM | 25.1 µM | 1.69 µM | 8.34 µM | 1.89 µM | > 50 µM | 2.92 µM | 14.5 µM |  | 
O=C1c2c(O)cccc2C(C(=O)CCCCCC(=O)C2c3cccc(O)c3C(=O)c3c(O)cccc32)c2cccc(O)c21 | 10.6 µM | 10.2 µM and 19.9 µM | 8.38 µM | 5.87 µM and 15.3 µM |  |  |  | 16.8 µM | 5.45 µM | 6.96 µM and 16.9 µM | 10.8 µM | 25 µM and 27.6 µM | 7.79 µM | 2.5 µM and 16.8 µM | 2.86 µM | 25 µM and 12.5 µM | 1.57 µM | 1.62 µM and 5.23 µM |  | 
O=S(=O)(C1=CC(S(=O)(=O)c2ccccc2)COC1)c1ccccc1 (stereo unspecified) |  | > 100 µM |  | > 100 µM |  | > 100 µM |  |  |  | > 100 µM |  | > 100 µM |  | > 100 µM |  | > 100 µM |  | > 100 µM |  | 
Cc1ccccc1/C=C/c1csnn1 |  | > 100 µM |  | > 100 µM |  | > 100 µM |  | > 100 µM |  | > 100 µM |  | > 100 µM |  | > 100 µM |  | > 100 µM |  | > 75.6 µM |  | 
COc1ccc(C(c2ccccc2C(=O)O)c2ccc(OC)c3ccccc23)c2ccccc12 |  | 63.4 µM |  | 27.9 µM |  |  |  | 50.8 µM |  | 30.2 µM |  | 66 µM |  | 33 µM |  | > 100 µM |  |  |  | 

From PubChem BioAssay (NCI)
